Data as given in US12053465B2, “KCC2 expression enhancing compounds and uses thereof” (Whitehead Institute for Biomedical Research, priority 2017, dated 2024).

Columns and labels:
[1] = system: KCC2 expression; experiment: Western blot of KCC2 in cultured WT human neurons; type: cell-based; conditions: cultured WT human neurons (WIBR1); Western blot
[2] = system: immature mouse neurons; experiment: Resting membrane potential and membrane capacitance of DIV6 immature mouse neurons; type: cell-based
[3] = system: human RTT neurons; experiment: mEPSC whole-cell patch-clamp recording in cultured human RTT neurons; type: cell-based; conditions: for mEPSC frequency enhancement: RTT neurons with KCC2 shRNA transfection; for frequency of mEPSCs / mEPSC amplitude: cultured human RTT neurons; for mEPSC amplitude: vs DMSO control
Description: (§1) Moreover, a reduction in the number or the strength of excitatory glutamatergic synapses in RTT neurons has been observed in postmortem RTT patient brain samples (30), mouse models of RTT (53), and human stem cell-derived RTT neurons (54). Electrophysiology recording was utilized to assess whether KEECs could rescue the deficits in EGABA and excitatory synaptic transmission of RTT neurons. […] We further investigated whether the beneficial effect of KEECs is a direct result of the increases in neuronal KCC2 gene expression. […] Deficits in a number of morphological measurements, including nuclei size and neurite complexity and branching, are hallmarks of RTT neurons (54-56). […] To validate the morphological measurements, electrophysiological measurements of the neuronal membrane capacitance (Cm), an indicator of neuronal cell size (57) that is reduced in RTT neurons, were conducted.
(§2) Functionally mature human neuron cultures were obtained by seeding human WT or isogenic RTT NPCs on a layer of primary mouse astrocyte culture as previously described (57). In the cultured WT human neurons, KCC2 expression reaches mature level between 2-3 months (7). We therefore treated the WT or RTT human neurons 8-12 weeks in culture, with compounds for a duration of two weeks before conducting whole-cell patch-clamp recording. The extracellular bath solution, that perfused the recording chamber, consists of (in mM): 120 NaCl, 30 glucose, 25 HEPES, 5 KCl, 2 CaCl2, 1 MgCl2. The pH was adjusted to 7.3 with NaOH. The high-chloride internal pipette solution consists of (in mM): 147 KCl, 5 Na-phosphocreatine, 2 EGTA, 10 HEPES, 4 MgATP, and 0.5 Na2GTP; the pH 7.3 was adjusted with KOH. To record mini EPSC, the membrane potential was held at −70 mV, and 0.5 μM of TTX and 50 μM Picrotoxin were applied with bath solution to block action potential and GABAergic synaptic transmission.
To evoke GABA response, a pipette filled with 100 μM GABA solution was positioned 5-10 μm away from the neuronal cell body. Air pulses at the pressure of 10 p.s.i. and duration of 100 ms were generated with a Picrospritzer (Parker Instrumentation) to puff GABA solution onto neuronal cell body. Neuronal response to GABA puffs were recorded at different membrane holding potentials from −90 mV to +30 mV, and the EGABA values were calculated with linear regression. Electrophysiological signals were recorded with Multiclamp 700A patch-clamp amplifier and data were collected with Clamp 9 software (Molecular Devices, Palo Alto, CA), sampled at 10 kHz and filtered at 1 KHz. Off-line data analyses of mEPSC synaptic events were performed with MiniAnalysis software (Synaptosoft, Decator, GA). All experiments were performed at room temperature. A sample size of 5-8 neurons was used for EGABA measurements, while a sample size of 14-19 neurons was used for mEPSC measurements. All data were presented as mean±SEM. ANOVA test followed by the Bonferroni correction were used for statistical analysis. The Kolmogorov-Smirnov test was employed to compare the cumulative distribution between two datasets.

[4] = system: human RTT neurons; experiment: Membrane capacitance (Cm) of cultured human RTT neurons; type: cell-based; conditions: for increase of neuronal Cm: RTT neurons transfected with KCC2 shRNA; for membrane capacitance (Cm): cultured human RTT neurons, vs DMSO or MeBIO control
Description: as §1, §2

[5] = system: immature mouse neurons; experiment: Gramicidin-perforated patch recording of EGABA in DIV6-7 immature mouse neurons; type: cell-based
[6] = system: human RTT neurons; experiment: Gramicidin-perforated patch recording of EGABA in cultured human RTT neurons; type: cell-based
[7] = system: Mecp2 mutant mice; experiment: Plethysmograph breathing measurement in Mecp2 mutant mouse model of RTT; type: in vivo; conditions: male Mecp2 mutant mice; daily injection, two weeks; vs DMSO- or EtOH-injected control
Experimental: (§3) We assessed the in vivo efficacy of KEECs by treating RTT disease-related symptoms such as breathing pauses and reduced locomotion (58) in a Mecp2 mutant mouse model of RTT. […] Plethysmograph and locomotion measurements were made in 4-6 week-old male Mecp2 mutant animals as a pre-treatment control time point and were then injected daily with KEECs KW-2449 or Piperine. Injection of the solvent DMSO or ethanol (EtOH) served as vehicle controls (FIG. 15A). The same two behavioral measurements in vehicle or KEEC-injected Mecp2 mutant animals were performed again two weeks after the start of daily injections. Each animal's ‘after injection’ data were compared to the ‘before injection’ level to assess behavioral changes.
Male Mecp2 mutant mice (Mecp2^−/y, e.g. the Bird model) between 4-12 weeks of age were used for the in vivo experiments. Subjects were divided into drug treated KO (Piperine/KW-2449), and vehicle treated KO (EtOH/DMSO) groups. Animals were randomly assigned to treatment arms with approximately equivalent numbers in each group. […]
A full body plethysmograph chamber (EMKA Inc, PA) was used to measure breathing patterns. […] For each test, the subject was left in the chamber for 20 minutes, afterwards its breath pattern was recorded for the next 20 minutes, and the estimated amplitude modulation index (eAMI) was calculated from the breath trace to label breath pauses automatically. […]

[8] = system: Mecp2 mutant mice; experiment: Locomotion (infrared beam break) in Mecp2 mutant mouse model of RTT; type: in vivo
Experimental: as §3
Male Mecp2 mutant mice (Mecp2^−/y, e.g. the Bird model) between 4-12 weeks of age were used for the in vivo experiments. Subjects were divided into drug treated KO (Piperine/KW-2449), and vehicle treated KO (EtOH/DMSO) groups. Animals were randomly assigned to treatment arms with approximately equivalent numbers in each group.
KW-2449 stock solution was prepared at 10 mg/ml with DMSO, and Piperine stock solution at 30 mg/ml with EtOH. 20 μl of stock solution were diluted with 1 ml saline for injection. Daily drug treatments or sham injections were performed on both groups between P28 and P56, for at least two weeks, as Mecp2 mutant mice start to show symptoms around P28 and die around P60. Both following tests were performed on both groups of mice before the injections start, and repeated at the end of the injection period. The animals' performance was then compared before and after drug/vehicle injections.
To measure the subjects' nighttime locomotion, a 1-D infrared light-beam frame (ActiMot, TSE-systems, MO) was used. Animals were single-housed in new cages with the same setup as their home cages. The infrared monitor was set up for each cage and the beam crossings was recorded between 17:00 and 9:00 the next morning, where the lights were turned off between 19:00 and 7:00. The average beam crossing frequency during the night (21:00-5:00) was used as the subject's activity score, and the average beam crossing frequency after lights on (7:00-9:00) was used as the subject's day time activity score. The time periods where the mouse is stationary for >5 minutes are discarded to reduce artifact caused by the mouse sleeping. As we look at both day-time and night-time locomotion, a bonferroni correction with repeated comparison number of 2 was applied. All behavioral analyses were performed by experimenters who were blind to the treatment condition.

Structure (SMILES): O=C1Nc2cc(Br)ccc2/C1=C1/Nc2ccccc2/C1=N\O [BIO, (2Z,3E)-6′-bromo-3-(hydroxyimino)-[2,3′-biindolinylidene]-2′-one]
- KCC2 expression [1]: significantly increased KCC2 expression
- resting membrane potential [2]: does not significantly alter the resting membrane potential
- mEPSC frequency enhancement [3]: abolished the effect
- frequency of mEPSCs [3]: significantly increased the frequency of mEPSCs to levels equivalent to WT control
- mEPSC amplitude [3]: significantly increased mEPSC amplitude
- increase of neuronal Cm [4]: abolished the capability
- membrane capacitance (Cm) [4]: significantly higher Cm, at levels comparable to isogenic WT human neurons

Structure (SMILES): O=C(c1ccc(/C=C/c2n[nH]c3ccccc23)cc1)N1CCNCC1 [KW-2449, (E)-(4-(2-(1H-indazol-3-yl)vinyl)phenyl)(piperazin-1-yl)methanone]
- KCC2 expression [1]: significant increase in KCC2 expression in a dose-dependent manner
- EGABA after treatment ([5]; DIV6-7 immature mouse neurons, untreated about −50 mV): about −70 mV
- significant hyperpolarizing shift in EGABA ([5]; DIV6 cultured immature mouse neurons): induces significant hyperpolarizing shift in EGABA
- resting membrane potential [2]: does not significantly alter the resting membrane potential
- membrane capacitance ([2]; vs DMSO control): significantly increase the membrane capacitance
- shift in EGABA ([6]; RTT neurons transfected with KCC2 shRNA): failed to hyperpolarize the EGABA
- shift in EGABA ([6]; cultured human RTT neurons, DMSO about −50 mV, WT −70 mV): significant hyperpolarizing shift in EGABA to levels comparable to WT neurons
- mEPSC frequency enhancement [3]: abolished the effect
- frequency of mEPSCs [3]: significantly increased the frequency of mEPSCs to levels equivalent to WT control
- mEPSC amplitude [3]: significantly increased mEPSC amplitude
- increase of neuronal Cm [4]: abolished the capability
- membrane capacitance (Cm) [4]: significantly higher Cm, at levels comparable to isogenic WT human neurons
- frequency of breathing pauses [7]: significantly reduced the frequency of breathing pauses
- night-time locomotion (infrared beam break frequency in home cage) ([8]; Mecp2 mutant animals, vs DMSO control): significantly increased night-time locomotion
- locomotive activities ([8]; male Mecp2 mutant mice, daily injection, two weeks, vs DMSO- or EtOH-injected control): remarkable increase in locomotive activities
